{
  "source": "ChEMBL document CHEMBL4715821",
  "about": "“Discovery of 4-ethoxy-7H-pyrrolo[2,3-d]pyrimidin-2-amines as potent, selective and orally bioavailable LRRK2 inhibitors” (Bioorg Med Chem Lett, 2018)",
  "key": {"[1]": {"target": "Serine/threonine-protein kinase PAK 4 (Homo sapiens) (UniProt O96013)", "experiment": "Inhibition of wild-type human partial length PAK4 (Q144 to R438 residues) expressed in bacterial expression system assessed as residual activity at 1 uM by Kinomescan method relative to control"}, "[2]": {"target": "Serine/threonine-protein kinase Nek3 (Homo sapiens) (UniProt P51956)", "sequence (P51956 whole entry, the tested form may be a part)": "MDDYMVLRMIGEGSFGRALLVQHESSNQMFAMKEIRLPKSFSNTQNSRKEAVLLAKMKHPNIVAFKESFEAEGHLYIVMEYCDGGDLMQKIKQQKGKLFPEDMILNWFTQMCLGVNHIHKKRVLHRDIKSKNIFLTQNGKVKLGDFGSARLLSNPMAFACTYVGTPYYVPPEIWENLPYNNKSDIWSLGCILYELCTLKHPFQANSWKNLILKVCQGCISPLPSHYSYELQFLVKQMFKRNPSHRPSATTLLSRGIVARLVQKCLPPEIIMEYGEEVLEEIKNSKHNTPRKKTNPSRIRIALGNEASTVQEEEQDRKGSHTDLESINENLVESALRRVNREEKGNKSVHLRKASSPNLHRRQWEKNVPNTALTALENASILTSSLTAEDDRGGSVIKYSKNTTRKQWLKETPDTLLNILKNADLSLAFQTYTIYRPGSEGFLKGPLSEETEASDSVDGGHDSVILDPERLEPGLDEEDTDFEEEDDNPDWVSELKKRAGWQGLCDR", "experiment": "Inhibition of wild-type human full length NEK3 (M1 to R506 residues) expressed in mammalian expression system assessed as residual activity at 1 uM by Kinomescan method relative to control"}, "[3]": {"target": "Serine/threonine-protein kinase MRCK beta (Homo sapiens) (UniProt Q9Y5S2)", "experiment": "Inhibition of wild-type human partial length MRCKB (L56 to S417 residues) expressed in bacterial expression system assessed as residual activity at 1 uM by Kinomescan method relative to control"}, "[4]": {"target": "Voltage-gated inwardly rectifying potassium channel KCNH2 (Homo sapiens, UniProt Q12809)", "experiment": "Inhibition of human ERG"}, "[5]": {"target": "Ephrin type-B receptor 3 (Homo sapiens) (UniProt P54753)", "experiment": "Inhibition of wild-type human partial length EPHB3 (Q599 to T928 residues) expressed in bacterial expression system assessed as residual activity at 1 uM by Kinomescan method relative to control"}, "[6]": {"experiment": "Unbound fraction in mouse blood", "type": "ADME, tissue-based"}, "[7]": {"target": "Glycogen synthase kinase-3 alpha (Homo sapiens) (UniProt P49840)", "sequence (P49840 2-483 limits assumed)": "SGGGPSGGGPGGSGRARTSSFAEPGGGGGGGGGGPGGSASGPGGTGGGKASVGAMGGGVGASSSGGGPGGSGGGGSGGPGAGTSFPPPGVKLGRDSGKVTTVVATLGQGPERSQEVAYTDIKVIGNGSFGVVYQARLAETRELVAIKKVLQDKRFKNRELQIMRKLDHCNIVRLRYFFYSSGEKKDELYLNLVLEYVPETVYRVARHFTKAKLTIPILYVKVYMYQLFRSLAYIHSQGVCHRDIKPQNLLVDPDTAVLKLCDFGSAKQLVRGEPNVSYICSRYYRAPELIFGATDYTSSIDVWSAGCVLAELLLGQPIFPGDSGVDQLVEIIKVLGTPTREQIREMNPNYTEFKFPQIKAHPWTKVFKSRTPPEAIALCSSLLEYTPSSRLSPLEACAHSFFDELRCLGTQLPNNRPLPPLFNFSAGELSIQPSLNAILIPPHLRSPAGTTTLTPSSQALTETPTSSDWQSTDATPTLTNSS", "experiment": "Inhibition of wild-type human full length GSK3A (M1 to S483 residues) expressed in bacterial expression system assessed as residual activity at 1 uM by Kinomescan method relative to control"}, "[8]": {"target": "Serine/threonine-protein kinase N3 (Homo sapiens) (UniProt Q6P5Z2)", "experiment": "Inhibition of PKN3 (unknown origin) assessed as residual activity at 1 uM by Kinomescan method relative to control"}, "[9]": {"target": "Epithelial discoidin domain-containing receptor 1 (Homo sapiens) (UniProt Q08345)", "experiment": "Inhibition of wild-type human partial length DDR1 (R565 to V876 residues) expressed in bacterial expression system assessed as residual activity at 1 uM by Kinomescan method relative to control"}, "[10]": {"target": "Mitogen-activated protein kinase kinase kinase kinase 1 (Homo sapiens) (UniProt Q92918)", "experiment": "Inhibition of wild-type human full length HPK1 (M1 to R799 residues) expressed in bacterial expression system assessed as residual activity at 1 uM by Kinomescan method relative to control"}, "[11]": {"target": "Protein-tyrosine kinase 2-beta (Homo sapiens) (UniProt Q14289)", "experiment": "Inhibition of wild-type human full length PYK2 (M1 to E967 residues) expressed in bacterial expression system assessed as residual activity at 1 uM by Kinomescan method relative to control"}, "[12]": {"target": "Non-receptor tyrosine-protein kinase TYK2 (Homo sapiens) (UniProt P29597)", "experiment": "Inhibition of wild-type human partial length TYK2 expressed in mammalian expression system assessed as residual activity at 1 uM by Kinomescan method relative to control"}, "Homo sapiens": {"species": "Homo sapiens", "experiment": "Inhibition of PKA (unknown origin) assessed as residual activity at 1 uM by Kinomescan method relative to control"}, "[13]": {"target": "ALK tyrosine kinase receptor (Homo sapiens) (UniProt Q9UM73)", "experiment": "Inhibition of wild-type human partial length ALK (I1088 to E1409 residues) expressed in mammalian expression system assessed as residual activity at 1 uM by Kinomescan method relative to control"}, "[14]": {"target": "Cyclin-dependent kinase 4/cyclin D1 (Homo sapiens) (UniProt P11802+P24385)", "experiment": "Inhibition of wild-type human full length CDK4/cyclinD1 (M1 to E303 residues) expressed in mammalian expression system assessed as residual activity at 1 uM by Kinomescan method relative to control"}, "[15]": {"target": "Cyclin-dependent kinase 5/CDK5 activator 1 (Homo sapiens) (UniProt Q00535+Q15078)", "experiment": "Inhibition of wild-type human full length CDK5 (M1 to P292 residues)/p35 expressed in bacterial expression system assessed as residual activity at 1 uM by Kinomescan method relative to control"}, "[16]": {"target": "Leukocyte tyrosine kinase receptor (Homo sapiens) (UniProt P29376)", "sequence (P29376 whole entry, the tested form may be a part)": "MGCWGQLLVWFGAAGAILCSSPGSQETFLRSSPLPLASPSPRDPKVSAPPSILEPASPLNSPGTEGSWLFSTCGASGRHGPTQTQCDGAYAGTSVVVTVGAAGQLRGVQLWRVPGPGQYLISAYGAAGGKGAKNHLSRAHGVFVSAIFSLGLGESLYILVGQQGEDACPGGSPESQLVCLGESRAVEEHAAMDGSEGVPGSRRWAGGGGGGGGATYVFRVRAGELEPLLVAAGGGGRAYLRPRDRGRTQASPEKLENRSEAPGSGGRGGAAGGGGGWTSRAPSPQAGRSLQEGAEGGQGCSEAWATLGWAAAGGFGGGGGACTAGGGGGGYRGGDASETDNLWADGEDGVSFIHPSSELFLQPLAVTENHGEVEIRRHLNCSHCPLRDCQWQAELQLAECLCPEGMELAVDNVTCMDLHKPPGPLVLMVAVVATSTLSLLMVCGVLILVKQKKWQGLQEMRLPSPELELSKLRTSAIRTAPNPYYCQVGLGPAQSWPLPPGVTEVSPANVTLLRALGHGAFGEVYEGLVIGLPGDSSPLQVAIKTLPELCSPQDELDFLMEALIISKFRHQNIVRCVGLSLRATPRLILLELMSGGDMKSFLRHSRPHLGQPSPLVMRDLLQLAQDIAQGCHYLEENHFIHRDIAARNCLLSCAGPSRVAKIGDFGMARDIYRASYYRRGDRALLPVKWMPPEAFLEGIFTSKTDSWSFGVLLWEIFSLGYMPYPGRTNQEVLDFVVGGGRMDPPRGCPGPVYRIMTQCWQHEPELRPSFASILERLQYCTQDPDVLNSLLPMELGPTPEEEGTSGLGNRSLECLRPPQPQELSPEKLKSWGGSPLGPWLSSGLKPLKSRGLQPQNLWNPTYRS", "experiment": "Inhibition of wild-type human partial length LTK (P422 to S744 residues) expressed in bacterial expression system assessed as residual activity at 1 uM by Kinomescan method relative to control"}, "[17]": {"target": "Serine/threonine-protein kinase N2 (Homo sapiens) (UniProt Q16513)", "experiment": "Inhibition of wild-type human partial length PKN2 (E634 to C984 residues) expressed in bacterial expression system assessed as residual activity at 1 uM by Kinomescan method relative to control"}, "[18]": {"target": "Lymphokine-activated killer T-cell-originated protein kinase (Homo sapiens) (UniProt Q96KB5)", "sequence (Q96KB5 whole entry)": "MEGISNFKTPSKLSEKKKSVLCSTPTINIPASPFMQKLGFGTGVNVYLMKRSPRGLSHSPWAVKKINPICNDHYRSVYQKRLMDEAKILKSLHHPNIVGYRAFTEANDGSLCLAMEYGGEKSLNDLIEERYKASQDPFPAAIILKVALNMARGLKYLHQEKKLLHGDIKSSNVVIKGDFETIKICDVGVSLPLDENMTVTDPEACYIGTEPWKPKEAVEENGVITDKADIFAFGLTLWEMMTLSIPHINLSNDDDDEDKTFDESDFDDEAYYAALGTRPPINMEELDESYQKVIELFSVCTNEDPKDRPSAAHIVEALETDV", "experiment": "Inhibition of PBK (unknown origin) assessed as residual activity at 1 uM by Kinomescan method relative to control"}, "[19]": {"target": "Casein kinase I isoform gamma-1 (Homo sapiens) (UniProt Q9HCP0)", "sequence (Q9HCP0 whole entry, looked up, canonical isoform)": "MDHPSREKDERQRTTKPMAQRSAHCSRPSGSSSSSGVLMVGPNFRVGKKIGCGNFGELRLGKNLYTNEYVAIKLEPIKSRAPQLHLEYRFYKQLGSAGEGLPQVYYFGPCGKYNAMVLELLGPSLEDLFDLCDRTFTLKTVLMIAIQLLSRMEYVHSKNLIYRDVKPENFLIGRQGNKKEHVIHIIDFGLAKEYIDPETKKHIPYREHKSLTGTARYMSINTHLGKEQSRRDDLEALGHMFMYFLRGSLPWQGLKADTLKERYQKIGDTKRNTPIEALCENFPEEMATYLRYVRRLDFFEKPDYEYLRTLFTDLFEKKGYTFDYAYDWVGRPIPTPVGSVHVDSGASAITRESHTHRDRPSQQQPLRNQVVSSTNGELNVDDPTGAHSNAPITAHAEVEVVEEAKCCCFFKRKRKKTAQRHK", "experiment": "Inhibition of CK1g1 (unknown origin) assessed as residual activity at 1 uM by Kinomescan method relative to control"}, "[20]": {"target": "Calcium/calmodulin-dependent protein kinase type IV (Homo sapiens) (UniProt Q16566)", "sequence (Q16566 whole entry, the tested form may be a part)": "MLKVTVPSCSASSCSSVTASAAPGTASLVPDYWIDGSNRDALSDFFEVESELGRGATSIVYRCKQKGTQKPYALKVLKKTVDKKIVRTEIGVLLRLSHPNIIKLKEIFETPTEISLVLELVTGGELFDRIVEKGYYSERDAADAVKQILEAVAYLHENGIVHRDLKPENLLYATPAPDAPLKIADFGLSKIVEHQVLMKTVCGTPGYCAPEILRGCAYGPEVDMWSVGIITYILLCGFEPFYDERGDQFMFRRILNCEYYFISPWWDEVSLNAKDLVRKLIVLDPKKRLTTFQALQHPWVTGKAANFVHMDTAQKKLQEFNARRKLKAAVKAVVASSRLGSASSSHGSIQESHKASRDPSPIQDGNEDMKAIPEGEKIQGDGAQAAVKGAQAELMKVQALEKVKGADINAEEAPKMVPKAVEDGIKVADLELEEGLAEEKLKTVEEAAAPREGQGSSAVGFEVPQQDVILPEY", "experiment": "Inhibition of wild-type human partial length CAMK4 (A22 to A322 residues) expressed in bacterial expression system assessed as residual activity at 1 uM by Kinomescan method relative to control"}, "[21]": {"target": "Tau-tubulin kinase 2 (Homo sapiens) (UniProt Q6IQ55)", "sequence (Q6IQ55 whole entry)": "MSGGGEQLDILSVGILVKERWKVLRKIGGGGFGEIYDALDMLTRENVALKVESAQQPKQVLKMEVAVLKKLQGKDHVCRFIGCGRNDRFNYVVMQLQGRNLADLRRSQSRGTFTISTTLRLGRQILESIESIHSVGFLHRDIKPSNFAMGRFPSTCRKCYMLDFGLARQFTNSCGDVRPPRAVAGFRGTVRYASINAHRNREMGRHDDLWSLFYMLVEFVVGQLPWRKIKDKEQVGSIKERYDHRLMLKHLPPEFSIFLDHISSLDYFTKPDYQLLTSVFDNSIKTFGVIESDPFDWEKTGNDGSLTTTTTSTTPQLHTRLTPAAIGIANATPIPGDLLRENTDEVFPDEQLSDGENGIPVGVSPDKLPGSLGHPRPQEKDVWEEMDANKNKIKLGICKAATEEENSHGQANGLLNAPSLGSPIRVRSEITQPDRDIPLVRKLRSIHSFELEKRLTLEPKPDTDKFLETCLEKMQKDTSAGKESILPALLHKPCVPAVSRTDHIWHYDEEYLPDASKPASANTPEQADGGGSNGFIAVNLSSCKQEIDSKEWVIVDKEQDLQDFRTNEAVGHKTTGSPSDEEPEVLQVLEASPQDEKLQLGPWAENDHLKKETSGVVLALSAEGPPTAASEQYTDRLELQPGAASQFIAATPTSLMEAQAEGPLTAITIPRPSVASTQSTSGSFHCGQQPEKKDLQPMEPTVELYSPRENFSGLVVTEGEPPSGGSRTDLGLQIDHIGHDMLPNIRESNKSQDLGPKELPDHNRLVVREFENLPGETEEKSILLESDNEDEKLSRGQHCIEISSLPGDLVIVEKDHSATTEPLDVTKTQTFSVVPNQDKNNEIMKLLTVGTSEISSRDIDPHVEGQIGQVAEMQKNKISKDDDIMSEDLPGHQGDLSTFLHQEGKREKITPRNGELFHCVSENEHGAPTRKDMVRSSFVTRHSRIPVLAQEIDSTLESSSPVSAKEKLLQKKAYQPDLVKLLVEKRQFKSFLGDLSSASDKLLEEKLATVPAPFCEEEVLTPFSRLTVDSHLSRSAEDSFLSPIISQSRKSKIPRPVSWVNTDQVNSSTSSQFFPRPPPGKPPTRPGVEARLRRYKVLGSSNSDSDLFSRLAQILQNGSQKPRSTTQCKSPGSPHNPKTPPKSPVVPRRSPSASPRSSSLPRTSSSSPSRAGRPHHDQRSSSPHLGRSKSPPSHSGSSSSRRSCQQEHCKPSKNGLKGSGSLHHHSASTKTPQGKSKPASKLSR", "experiment": "Inhibition of TTBK2 (unknown origin) assessed as residual activity at 1 uM by Kinomescan method relative to control"}, "[22]": {"target": "Serine/threonine-protein kinase MRCK gamma (Homo sapiens) (UniProt Q6DT37)", "experiment": "Inhibition of wild-type human partial length DMPK2 (S46 to S408 residues) expressed in bacterial expression system assessed as residual activity at 1 uM by Kinomescan method relative to control"}, "[23]": {"target": "Serine/threonine-protein kinase ULK3 (Homo sapiens) (UniProt Q6PHR2)", "sequence (Q6PHR2 whole entry, the tested form may be a part)": "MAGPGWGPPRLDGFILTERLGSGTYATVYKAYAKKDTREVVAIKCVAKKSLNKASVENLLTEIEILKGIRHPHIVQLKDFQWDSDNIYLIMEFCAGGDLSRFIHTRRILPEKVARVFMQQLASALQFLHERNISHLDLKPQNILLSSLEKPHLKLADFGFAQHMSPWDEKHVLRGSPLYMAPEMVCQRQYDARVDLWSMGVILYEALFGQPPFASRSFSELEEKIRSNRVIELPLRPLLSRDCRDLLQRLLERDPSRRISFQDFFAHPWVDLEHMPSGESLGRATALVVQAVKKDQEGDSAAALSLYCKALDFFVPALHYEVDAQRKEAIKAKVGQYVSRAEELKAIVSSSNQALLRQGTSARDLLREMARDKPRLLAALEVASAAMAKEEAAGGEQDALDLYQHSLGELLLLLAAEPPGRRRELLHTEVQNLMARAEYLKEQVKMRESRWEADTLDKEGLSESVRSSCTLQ", "experiment": "Inhibition of wild-type human partial length ULK3 (M1 to Q290 residues) expressed in mammalian expression system assessed as residual activity at 1 uM by Kinomescan method relative to control"}, "[24]": {"target": "Serine/threonine-protein kinase NLK (Homo sapiens) (UniProt Q9UBE8)", "experiment": "Inhibition of wild-type human full length NLK (M13 to E527 residues) expressed in bacterial expression system assessed as residual activity at 1 uM by Kinomescan method relative to control"}, "[25]": {"experiment": "In vivo inhibition of LRRK2 in Han-Wistar rat assessed as reduction in Ser935 phosphorylation in spleen at 10 to 100 mg/kg, po by Western blot analysis", "type": "functional", "parameters": "scale not given: the % may be the effect or the level left", "details": "dose 10-100 mg/kg"}, "[26]": {"target": "Dual specificity testis-specific protein kinase 1 (Homo sapiens) (UniProt Q15569)", "experiment": "Inhibition of wild-type human full length TESK1 (R37 to S626 residues) expressed in bacterial expression system assessed as residual activity at 1 uM by Kinomescan method relative to control"}, "[27]": {"target": "Casein kinase I isoform gamma-2 (Homo sapiens) (UniProt P78368)", "experiment": "Inhibition of CK1g2 (unknown origin) assessed as residual activity at 1 uM by Kinomescan method relative to control"}},
  "note": "pIC50: −log10 of the molar value.",
  "data": [
    {"smiles": "CCOc1nc(Nc2ccc(C(=O)N3CCOCC3)cc2OC)nc2[nH]ccc12", "values": [
      {"measurement": "Activity", "setting": "[1]", "result": 99, "unit": "%"},
      {"measurement": "Activity", "setting": "[2]", "result": 104, "unit": "%"},
      {"measurement": "Activity", "setting": "[3]", "result": 98, "unit": "%"},
      {"measurement": "pIC50", "setting": "[4]", "result": "< 4.20"},
      {"measurement": "Activity", "setting": "[5]", "result": 94.4, "unit": "%"},
      {"measurement": "fraction unbound", "setting": "[6]", "result": 0.031},
      {"measurement": "Activity", "setting": "[7]", "result": 87.8, "unit": "%"},
      {"measurement": "Activity", "setting": "[8]", "result": 96.5, "unit": "%"},
      {"measurement": "Activity", "setting": "[9]", "result": 102, "unit": "%"},
      {"measurement": "Activity", "setting": "[10]", "result": 86.6, "unit": "%"},
      {"measurement": "Activity", "setting": "[11]", "result": 36.1, "unit": "%"},
      {"measurement": "Activity", "setting": "[12]", "result": 96.5, "unit": "%"},
      {"measurement": "Activity", "setting": "Homo sapiens", "result": 103, "unit": "%"},
      {"measurement": "Activity", "setting": "[13]", "result": 7.52, "unit": "%"},
      {"measurement": "Activity", "setting": "[14]", "result": 97.4, "unit": "%"},
      {"measurement": "Activity", "setting": "[15]", "result": 93.1, "unit": "%"},
      {"measurement": "Activity", "setting": "[16]", "result": 20.2, "unit": "%"},
      {"measurement": "Activity", "setting": "[17]", "result": 101, "unit": "%"},
      {"measurement": "Activity", "setting": "[18]", "result": 101, "unit": "%"},
      {"measurement": "Activity", "setting": "[19]", "result": 95, "unit": "%"},
      {"measurement": "Activity", "setting": "[20]", "result": 90.6, "unit": "%"},
      {"measurement": "Activity", "setting": "[21]", "result": 104, "unit": "%"},
      {"measurement": "Activity", "setting": "[22]", "result": 106, "unit": "%"},
      {"measurement": "Activity", "setting": "[23]", "result": 82, "unit": "%"},
      {"measurement": "Activity", "setting": "[24]", "result": 94.5, "unit": "%"},
      {"measurement": "Activity", "setting": "[25]", "result": 100, "unit": "%"},
      {"measurement": "Activity", "setting": "[26]", "result": 104, "unit": "%"},
      {"measurement": "Activity", "setting": "[27]", "result": 95.6, "unit": "%"}
    ]}
  ]
}
